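Values below derive from 48-hour exposures of cells grown in 96-well plates, with endpoints linearly interpolated between the two concentrations bracketing the appropriate inhibition level. Here, GI50 denotes the concentration required for 50% inhibition of growth. TGI marks complete inhibition of growth.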
Experiments:
Assay in all cases: NCI anticancer screen, dose series, 48 h
SNB-75 CNS = system: SNB-75 CNS
NCI-H460 lung = system: NCI-H460 lung
SK-MEL-5 melanoma = system: SK-MEL-5 melanoma
NCI-H522 lung = system: NCI-H522 lung
SF-295 CNS = system: SF-295 CNS
SK-MEL-2 melanoma = system: SK-MEL-2 melanoma
DMS 273 small cell lung = system: DMS 273 small cell lung
RXF 393 renal = system: RXF 393 renal
MDA-MB-231 breast = system: MDA-MB-231 breast
MDA-N = system: MDA-N
MCF7 breast = system: MCF7 breast

SMILES	TGI (SNB-75 CNS) [µM]	TGI (NCI-H460 lung) [µM]	TGI (SK-MEL-5 melanoma) [µM]	TGI (NCI-H522 lung) [µM]	TGI (SF-295 CNS) [µM]	TGI (SK-MEL-2 melanoma) [µM]	TGI (DMS 273 small cell lung) [µM]	TGI (RXF 393 renal) [µM]	TGI (MDA-MB-231 breast) [µM]	TGI (MDA-N) [µM]	TGI (MCF7 breast) [µM]	GI50 (SNB-75 CNS) [µM]	GI50 (NCI-H460 lung) [µM]	GI50 (SK-MEL-5 melanoma) [µM]	GI50 (NCI-H522 lung) [µM]	GI50 (SF-295 CNS) [µM]	GI50 (SK-MEL-2 melanoma) [µM]	GI50 (RXF 393 renal) [µM]	GI50 (MDA-MB-231 breast) [µM]	GI50 (MCF7 breast) [µM]
O=c1ccc2nc3cc(Br)ccc3sc-2c1	> 100	> 100	> 100	> 100	> 100	> 100	> 100													
C[N+]1(CCC(=O)c2ccco2)CC2CCC(CC2)C1 (centres undefined)	> 100	> 100	> 100	> 100	> 100	> 100		> 100	> 100	> 100	> 100									
Nc1c(C(=O)O)nnc2cc(Cl)c(Cl)cc12	> 100	> 100	> 100	> 100	> 100	> 100			> 100	> 100	> 100									
COc1ccc(C(=O)C2=NON3OC23C(=O)c2ccc(OC)cc2)cc1 (centres undefined)	43.6	40	29.3	3.68	34.1	34.5	36.4	17.1												
CN(C)c1ccc(C=Nc2ccc(Oc3ccc(Cl)cc3)c(Cl)c2)cc1	35.6	42.1	33.4	31.4	50.9	37.4			38.5	52.8	> 100									
COCC1CCCN1c1ccc(C=N/C(C#N)=C(\N)C#N)cc1 (centres undefined)	58.1	> 100	> 100	56.2	> 100	> 100		> 100	> 100		> 100	23.2	> 100	98.2	15.8	> 100	> 100	38.4	18.7	33.4
COCCNCc1ccc(-c2cc3nccc(Oc4ccc(NC(=S)NC(=O)Cc5ccc(F)cc5)cc4F)c3s2)nc1				6.5		19.1			4.1						2.51		6.01		1.97	
Cn1c(=O)[nH]c2nncnc2c1=O	117	245	177	> 516	325	312	106	123			> 501									
Cn1cnc([N+](=O)[O-])c1Sc1nc(N)nc2c1ncn2C1OC(CO)C(O)C1O (centres undefined)	> 84.9	28.1	25.7	33.5	> 72.6	21.1	> 100	21.6	> 100	> 100										
COc1cc2oc(=O)ccc2cc1C(=O)CC(C)C	> 100	> 100	> 100	56.4	> 100	> 100			> 100	> 100	> 100									
Cc1coc2c1C[C@@]1(C)[C@H](CCC[C@@H]1C)[C@H]2O		> 100	28.9	90.5	> 100			48.8	55.9	> 100	95.7									
Nc1ncnc2c1sc1nc3ccccc3n12	> 51.2	> 100	> 100	> 95.8	> 100	> 100		> 69.1	> 100		> 100									
O=c1[nH]c(Nc2ccc(Cl)c(C(F)(F)F)c2)nc2nc[nH]c12	> 100	> 100	> 100	34.3	> 100	91.2		> 100	> 100	> 100	> 100									
N#CC12Cc3cc4c(cc3-c3cccc(c31)CCN2C(=O)c1ccccc1)OCO4 (centres undefined)	62.8		> 100		> 100	> 100	> 100	> 100												
OCc1cn(C(c2ccccc2)(c2ccccc2)c2ccccc2)cn1	68.5	> 100	> 100	> 100	89.7	> 100			> 100	> 100										
COc1ccc2nc3c(C(=O)NCCN(C)C)cccc3cc2c1	9	3.65	3.28		6.2	5.44	6.15	5.28			7.22									
CC(C)(C)OC(=O)NC(CCCCNC(=O)OCc1ccccc1)C(=O)NCCNc1ccc(NCCNC(=O)C(CCCCNC(=O)OCc2ccccc2)NC(=O)OC(C)(C)C)c2c1C(=O)c1ccccc1C2=O (centres undefined)	70.4	> 100	> 100	93.3	> 100	20.5		88.9	38.2	> 100	27.2									
